# Values of other authors, collected in PMC2109944 (The Journal of Cell Biology, 1977).
# Experiments:
# [1] = system: mouse melanoma cells; conditions: binding at low temperature, no prefixation
# [2] = system: human fibroblasts; conditions: 125I-epidermal growth factor
# [3] = system: dissociated anterior pituitary cells
substance,measurement,setting,value
a-MSH,initial distribution of MSH receptor sites,[1],initially distributed at one pole of the cell over the Golgi area
"epidermal growth factor: 125I-labelled epidermal growth factor, literature comparison",internalization of hormone-bearing receptors,[2],internalized within hours of the binding taking place
luteinizing hormone-releasing hormone [LHRH],time to LH release by exocytosis after stimulation,[3],≤ 1 min
same,desensitization after short-term exposure,[3]; short-term exposure,refractory to further stimulation by the peptide
